Reference: article PMC8751734 (Cell Chemical Biology, 2022)

Target: SARS-CoV-2 PL^pro (Severe acute respiratory syndrome coronavirus 2, UniProt P0DTD1)
Format: biochemical

Row | SMILES | dose-dependent inhibition of PL^pro, compared with ACF
1 | Nc1ccc2cc3ccc(N)cc3nc2c1.O=S(=O)(O)O [acridine-3,6-diamine sulfate] | less active than the parent compound
2 | CN(C)c1ccc2cc3ccc(N(C)C)cc3nc2c1 [acridine orange base] | less active than the parent compound
